Data reported in patent publication US5863948A, “Increasing aqueous humor outflow” (priority 1994, dated 1999).
Structures can show the parent of a compound that is named as a salt. Where two headings read alike, the source gives them in different places.

What was measured:
[1] = tested on: calf eye outflow facility; conditions: perfusion at 15 mm Hg and 22° C.; cited from earlier work
monkey eye outflow = conditions: perfusion at 15 mm Hg and 22° C.; cited from earlier work
intraocular pressure [2] = test: Topical instillation, intraocular pressure in rabbits; format: in vivo, Dutch-belted rabbits
Experimental: (§1) For rabbit experiments Dutch-belted rabbits of either sex weighing 1.5 to 2 kg were used for topical studies. Each animal was randomly assigned one eye for the experimental and the other for its control solution. Intraocular pressure was measured using a Digilab Pneumotonometer. Any animals showing asymmetry of intraocular pressure greater than 2 mm were excluded form the study.
(§2) The protocol was as follows. Baseline intraocular pressure was taken in each eye using 0.5% proparacaine hydrochloride for topical anesthesia. […] In a half hour this was repeated. Two hours later intraocular pressure was measured in each eye. In some animals intraocular pressure was also measured five hours later and all animals had measurement of intraocular pressure the following day.
(§3) Ethacrynic acid powder was dissolved in 3% methylcellulose to yield the desired concentration. […] The solution was refrigerated over night to yield a transparent, viscous fluid. The pH of the solution was determined by mixing one part of the control or experimental solution with five parts of distilled water. […] The 3% methylcellulose solution was refrigerated when not in use.
(§4) Experiments similar to those described above have also been performed using two esters of ethacrynic acid, RCOOCH2 CH2 N(CH2 CH3)2 (hereinafter "ester A") and RCOOCH2 CH2 CH2 N(CH2 CH3)2 (hereinafter "ester B"), where R is [2,3-dichloro-4-(2-methylene-1-oxobutyl)phenoxy]acetate.
(§5) In all these topical experiments 2 drops of the agent were given 5 minutes apart and control eyes were fully sham manipulated. […] However, not all the animals were slit lamped.

eye [3] = test: Topical instillation, ocular side effects / irritation in rabbits; format: in vivo, Dutch-belted rabbits
Experimental: as §1, §2, §3, §4, §5

intraocular pressure [4] = test: Topical application, intraocular pressure in the monkey; format: in vivo
Experimental: as §4
After topical application of 10 mM ester A, a reduction in intraocular pressure in the rabbit was observed. This was most apparent 24 hours after instillation ([…] intraocular pressure changing from 22±3 to 15±2 mm Hg; n=8). In all these topical experiments 2 drops of the agent were given 5 minutes apart and control eyes were fully sham manipulated. […] However, not all the animals were slit lamped.
(§6) In the monkey, a significant pressure reduction 24 hours after application of 10 mM ester A was observed (control eyes changing from 17±3 to 21±2 mm Hg versus experimental eyes changing from 19±1 to 5±3 mm Hg; n=6). […] This was detected by flashlight examination and confirmed by slit lamp examination.

cornea = test: Topical application, corneal edema in the monkey (flashlight and slit lamp examination); format: in vivo
Experimental: as §4, §6

[5] = tested on: aqueous humor outflow (trabecular meshwork); test: Two-step constant pressure perfusion of anterior chamber; aqueous humor outflow facility in cynomolgus monkeys in vivo; set-up: species or system cynomologous monkeys
Excerpt: (§7) Ethacrynic acid (sodium salt) was used to increase aqueous humor outflow in cynomologous monkeys, as described below. Ethacrynic acid can be purchased from Merck, Sharp, and Dome, and is described in U.S. Pat. No. 3,255,241, hereby incorporated by reference. Ethacrynic acid has the chemical formula [2,3-dichloro-4-(2-methylene-1-oxobutyl) phenoxy] acetic acid. Any suitable analog described in U.S. Pat. No. 3,255,241 or its ester or amide derivative can also be used as described herein; for example, the following compounds may be used and are available from Allergan, Inc. (Irvine, Calif.), as indicated by the code number below the structure. [drawing 4]
(§8) Each animal was randomly assigned one eye for the experimental and the other for its control perfusion. The animals were fasted the night before the experiment. They were anesthetized intramuscularly with Methohexital Sodium 15 mg/kg and Pentobarbital Sodium 35 mg/kg. Supplemental anesthesia as required was carried out with Pentobarbital 10 mg/kg/hour. Needles were placed through the cornea into the anterior chamber and a two-step constant pressure perfusion method was performed in order to determine aqueous humor outflow facility. The basic medium for perfusion was Dulbecco's phosphate buffered saline with added 5.5 mM glucose. A 10 microliter bolus of the experimental or control solution (that would produce the desired final concentration in the anterior chamber) was injected through a T shaped connector piece in the infusion line.
(§9) Each vial of ethacrynic acid contained ethacrynate sodium powder equivalent to 50 mg of ethacrynic acid. […] The powder was diluted with the above basic medium (Dulbecco's with added glucose) to yield the desired concentration. The solution was mixed at room temperature until dissolved, and the pH was determined (always 7.2) before use; the solution was filtered with a 0.2 micron filter (Nuclepore); this produced a solution which was stable for 24 hours.
The control solution was composed of 9.5 mg sodium chloride (to osmotically balance the experimental solution), 62.5 mg mannitol and 0.1 milliliter thimerosol dissolved in Dulbecco's phosphate buffered saline with 5.5 mM added glucose to yield the desired concentration.
(§10) During perfusion experiments, a 10 microliter bolus injection was made using a Hamilton syringe. Since the monkey anterior chamber is approximately 200 microliters, 10 microliters of 10 mM ethacrynic acid was infused to achieve a final concentration of 0.5 mM ethacrynic acid.
[…] There were at least three animals and separate experiments carried out for each of the concentrations 0.1 MM, 0.25 mM, and 0.5 mM.

eye [6] = test: Ocular changes and intraocular pressure after perfusion in monkeys; format: in vivo, cynomologous monkeys
Excerpt: as §7, §8, §9, §10
Experiments were carried out using final ethacrynic acid concentrations in the aqueous humor of 0.1 mM to 0.5 mM. There were at least three animals and separate experiments carried out for each of the concentrations 0.1 MM, 0.25 mM, and 0.5 mM.

Solution stability = format: physicochemical
Experimental: as §9
Ethacrynic acid powder was dissolved in 3% methylcellulose to yield the desired concentration. The solution was mixed at room temperature for one hour and was stable for 24 hours. A similar osmotically balanced control solution was prepared from methyl cellulose powder dissolved in distilled water using low heat for several hours. The solution was refrigerated over night to yield a transparent, viscous fluid. The pH of the solution was determined by mixing one part of the control or experimental solution with five parts of distilled water. The pH ranged between 6.2 and 6.5 for both the control and experimental solutions. The 3% methylcellulose solution was refrigerated when not in use.

Water solubility = format: physicochemical

Compound: CCN1C(=O)C=CC1=O [NEM, N-ethylmaleimide]
- dosage producing a significant increase in the facility of outflow [1]: ≥ 4.7 mM
- outflow in the monkey eye (monkey eye outflow): increase in outflow

Compound: C=C(CC)C(=O)c1ccc(OCC(=O)OCCN(CC)CC)c(Cl)c1Cl [ester A, RCOOCH2 CH2 N(CH2 CH3)2]
- intraocular pressure (intraocular pressure [2]; 10 mM ester A, 24 hours after instillation, from 22±3, n=8, printed as control eye): 15±2 mm Hg
- irritation (eye [3]; 5 mM ester A, two rabbits): minimal if any irritation
- anterior chamber inflammation (eye [3]; 10 mM ester A): No anterior chamber inflammation was observed
- clearing of external irritation of the lid (eye [3]; 10 mM ester A): 24 h
- irritation of eyelid, conjunctiva, nictitating membrane (eye [3]; 10 mM ester A): Most of the animals demonstrated some irritation of the eyelid and a few to the conjunctiva and nictitating membrane
- corneal changes (eye [3]; 10 mM ester A, not all animals slit lamped): no corneal changes were observed
- pressure reduction (intraocular pressure [4]; 5 mM ester A): no pressure reduction was documented
- intraocular pressure, experimental eyes (intraocular pressure [4]; 10 mM ester A, 24 hours, from 19±1, control eyes 17±3 to 21±2, n=6): 5±3 mm Hg
- corneal edema (cornea; 5 mM ester A): corneal edema was likewise apparent
- corneal edema (cornea; 10 mM ester A): significant corneal edema was also observed in over half of the monkeys
- resolution of corneal edema (cornea; ester A topical, all animals): corneal edema ultimately resolved in all animals

Compound: C=C(CC)C(=O)c1ccc(OCC(=O)OCCCN(CC)CC)c(Cl)c1Cl [ester B, RCOOCH2 CH2 CH2 N(CH2 CH3)2]
- intraocular pressure, experimental eyes (intraocular pressure [2]; 10 mM ester B, 24 hours, from 23±3, control eyes 24±2 to 24±2, n=5): 15±3 mm Hg
- signs of irritation (eye [3]; 10 mM ester B, at 24 hours): only minimal if any signs of irritation
- slit lamp observation of ocular inflammation (eye [3]; 10 mM ester B, at 24 hours): no slit lamp observations of ocular inflammation

Compound: C=C(CC)C(=O)c1ccc(OCC(=O)O)c(Cl)c1Cl [ethacrynic acid, [2,3-dichloro-4-(2-methylene-1-oxobutyl)phenoxy] acetic acid]
- response in outflow facility ([5]; 0.25 mM): approximately half the animals perfused responded with a substantial increase in outflow facility
- mean increase in fluid outflow facility ([5]; 0.5 mM final concentration in anterior chamber, control perfused eye no change): 140%
- increase in outflow facility ([5]; 1.0 mM, one animal, 18% increase in control eye): 355%
- effect on outflow facility ([5]; lower dosages (below 0.25 mM)): no effect
- intraocular pressure after perfusion (eye [6]; a few days after the perfusion experiments): symmetrical and normal in both eyes
- dilated pupil (eye [6]; dosages above 0.25 mM, treated eye): some of the animals developed a dilated pupil
- chronic corneal edema, opacities or cataract formation (eye [6]; perfusion): no chronic corneal edema or opacities or cataract formation
- corneal or crystalline lens changes (eye [6]; perfusion): no apparent corneal or crystalline lens changes
- intraocular pressure, treated eye (intraocular pressure [2]; 5 mM in 3% methylcellulose, 2 hours, from 22.4 baseline, control eye 21.5 to 23.1, n=8, p less than 0.01): 19.6 mm Hg
- intraocular pressure, treated eye (intraocular pressure [2]; 5 mM in 3% methylcellulose, next day, control eye 22.7): 22.4 mm
- intraocular pressure, treated eye (intraocular pressure [2]; 10 mM and 3% methylcellulose, 24 hours, from 23.0 baseline, control eye 22.9 to 24.2, n=14, p less than 0.001): 20.0 mm Hg
- conjunctival side effect (eye [3]; 5 mM topical): slight conjunctival infection
- other side effects (eye [3]; 5 mM topical): no other side effects noted
- conjunctival side effect and irritation (eye [3]; 10 mM topical): moderate conjunctival infection and signs of irritation
- resolution of corneal toxicity and inflammation (eye [3]; higher concentrations (above 10 mM)): resolved without apparent sequelae
- corneal toxicity and anterior chamber inflammation (eye [3]; higher concentrations (above 10 mM), for several days): signs of corneal toxicity (corneal edema) and anterior chamber inflammation were apparent for several days
- stability of solution (Solution stability): 24 h

Compound: C=C(CC)C(=O)c1ccc(OCC(=O)O)c(Cl)c1Cl [sodium salt of ethacrynic acid]
- solubility (Water solubility): ~40 mM
- stability of solution (Solution stability; Dulbecco's phosphate buffered saline with 5.5 mM glucose, pH 7.2): 24 h
